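How tested: cells in 96-well plates exposed to compound for 48 hours at five concentrations. Abbreviation: GI50, concentration required for 50% inhibition of growth. The concentration for full growth arrest is given as TGI.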
Experiments:
Assay in all cases: DTP human tumour cell line panel, 48 h
HL-60(TB) leukemia = tested on: HL-60(TB) leukemia
LOX IMVI melanoma = tested on: LOX IMVI melanoma
MCF7 breast = tested on: MCF7 breast
NCI-H460 lung = tested on: NCI-H460 lung
NCI/ADR-RES ovarian = tested on: NCI/ADR-RES ovarian
SK-MEL-5 melanoma = tested on: SK-MEL-5 melanoma
SK-OV-3 ovarian = tested on: SK-OV-3 ovarian
U251 CNS = tested on: U251 CNS
UACC-62 melanoma = tested on: UACC-62 melanoma
UO-31 renal = tested on: UO-31 renal

Row | SMILES | GI50 (HL-60(TB) leukemia) [µM] | TGI (HL-60(TB) leukemia) [µM] | GI50 (LOX IMVI melanoma) [µM] | TGI (LOX IMVI melanoma) [µM] | GI50 (MCF7 breast) [µM] | TGI (MCF7 breast) [µM] | GI50 (NCI-H460 lung) [µM] | TGI (NCI-H460 lung) [µM] | GI50 (NCI/ADR-RES ovarian) [µM] | TGI (NCI/ADR-RES ovarian) [µM] | GI50 (SK-MEL-5 melanoma) [µM] | TGI (SK-MEL-5 melanoma) [µM] | GI50 (SK-OV-3 ovarian) [µM] | TGI (SK-OV-3 ovarian) [µM] | GI50 (U251 CNS) [µM] | TGI (U251 CNS) [µM] | GI50 (UACC-62 melanoma) [µM] | TGI (UACC-62 melanoma) [µM] | GI50 (UO-31 renal) [µM] | TGI (UO-31 renal) [µM]
1 | c1ccc2nc(OCCN3CC3)ccc2c1 | 6.59 | 34.9 | 4.05 | > 100 | 3.4 | 11.4 | 4.21 | 20.9 | 18.1 | 44.5 | 12.9 | 26.8 | 16.8 | 33.6 | 5.2 | 18.9 | 13 | 34.1 | 6.39 | 25
2 | Cc1cc(O)c(C(c2ccncc2)c2c(O)cc(C)[nH]c2=O)c(=O)[nH]1 | – | > 100 | – | > 100 | – | > 100 | – | > 100 | – | > 100 | – | > 100 | – | > 100 | – | > 100 | – | > 100 | – | > 100
3 | CCOC(=O)c1ccccc1-c1c2ccc(=[N+](C)C)cc-2oc2cc(N(C)C)ccc12 | 0.229 | 1.08 | 0.388 | 4.41 | 0.101 | 19.4 | 0.23 | 4.42 | 27.2 | > 100 | 0.205 | 0.632 | 0.306 | 1.74 | 0.128 | > 35.7 | 0.332 | 4.12 | 2.18 | 8.1
4 | O=c1c2c3c(sc2n2c(-c4ccc(Br)cc4)nnc2n1Cc1ccccc1)CCCC3 | 14.1 | 77.5 | 10.5 | 22.3 | 10.6 | 23.2 | 10.2 | 22.3 | 12.8 | 36 | 3.8 | 14.3 | 5.88 | 18.8 | 6.89 | 19.7 | 4.39 | 17.2 | 11.3 | 41.1
5 | Oc1ccc(Cl)cc1-c1cc(-c2ccc(F)cc2)n[nH]1 | 3.6 | 21.5 | 1.51 | 3.55 | 0.395 | 14.1 | 1.2 | 4.1 | 2.19 | 6.98 | 1.93 | 5.55 | 1.99 | 5.21 | 2.1 | 5 | 2.42 | 9.5 | 1.21 | 3.78
6 | O=[N+]([O-])c1cc(F)c2cccnc2c1O | 2.48 | 8.12 | 4.63 | > 100 | 17.4 | 74.9 | 3.83 | 30.5 | 3.61 | 45.3 | 16.5 | 73.7 | 26.3 | > 100 | 4.9 | 90.3 | 11 | 55.6 | 2.34 | 18.2
7 | ClCC#CCSc1ncnc2c1ncn2CC#CCCl | 1.99 | 5.73 | 0.503 | 2 | 1.18 | 3.62 | 2.15 | 6.77 | 1.77 | 4.92 | 1.29 | 2.66 | 1.86 | 3.95 | 1.32 | 3.04 | 1.17 | 2.66 | 1.33 | 3.38
8 | O=C1c2ccccc2-c2c1c1ccccc1c(=O)n2-c1ccccc1 | – | > 86.3 | – | > 100 | – | > 100 | – | 36.6 | – | 40.8 | – | 52 | – | 26.4 | – | 39.9 | – | > 54.2 | – | 23.5

Reference: PubChem BioAssay (NCI)
